Where two headings read alike, the source gives them in different places.
Assays:
[1] = biological target: Escherichia Coli TS ("ETS") (Escherichia coli, UniProt P0A884); experiment: Thymidylate synthase inhibition constant Ki, Escherichia Coli TS; type: biochemical
Protocol: (§1) Thymidylate synthase inhibition constants Ki were determined by the following method. All assays were run at 25° C. and initiated by the addition of three different types of thymidylate synthase ("TS"): (1) Escherichia Coli TS ("ETS"); (2) Candida TS ("CTS"), a fungus; and (3) human TS ("HTS").
(§2) All reaction mixtures contained 50 mM Tris at pH 7.8 (the final pH of the reaction was; 7.6), 10 mM DTT (dithiothreitol), 1 mM EDTA (ethylenediaminetetraacetic acid), 25 mM MgCl2, 15 mM H2 CO (formaldehyde) and 25 microM dUMP. When human TS was assayed, 100 micrograms/ml of BSA (bovine serum albumin) was present in the reactions. The range of THF (Tetrahydrofolate) was 5 to 150 microM (eight concentrations: 5, 6.6, 10, 13, 16, 25, 50 and 150 microM). A standard curve in the absence of inhibitor was run with each experiment. […] Charcoal was used to remove unreacted dUMP from the tritium release reaction mixtures, and the resultant water was counted to determine the extent of reaction.

[2] = biological target: human TS ("HTS") (Homo sapiens, UniProt P04818); experiment: biochemical
Protocol: as §1
as §2, with “The range of THF (Tetrahydrofolate) was 5 to 150 microM (eight concentrations: 5, 6.6, 10, 13, 16, 25, 50 and 150 microM).” left out

[3] = biological target: Candida TS ("CTS") (Candida albicans, UniProt P12461); experiment: Thymidylate synthase inhibition constant Ki, Candida TS; type: biochemical
Protocol: as §1, §2

[4] = tested on: L1210 murine leukemia (ATCC CCL 219); experiment: cells; type: cell-based; conditions: Mus musculus, L1210, 72 h, read-out: IC50 L1210
[5] = tested on: CCRF-CEM, a human lymphoblastic leukemia line of T-cell origin (ATCC CCL 119); experiment: cells; type: cell-based; conditions: 120 h, read-out: IC50 (CRFCEM)
[6] = tested on: thymidine kinase deficient human adenocarcinoma line (GC3 /M TK^-); experiment: cells; type: cell-based; conditions: GC3/MTK-, 120 h, read-out: IC50 GC3-M

Sequence of Escherichia Coli TS ("ETS") (P0A884 whole entry): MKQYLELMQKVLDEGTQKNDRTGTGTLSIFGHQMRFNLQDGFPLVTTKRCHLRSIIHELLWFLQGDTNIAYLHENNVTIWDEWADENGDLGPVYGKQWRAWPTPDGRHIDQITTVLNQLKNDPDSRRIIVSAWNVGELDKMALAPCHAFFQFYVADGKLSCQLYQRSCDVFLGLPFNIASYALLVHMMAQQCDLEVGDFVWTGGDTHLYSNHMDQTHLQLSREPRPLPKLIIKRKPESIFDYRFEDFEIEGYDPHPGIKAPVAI
Sequence of human TS ("HTS") (P04818 whole entry): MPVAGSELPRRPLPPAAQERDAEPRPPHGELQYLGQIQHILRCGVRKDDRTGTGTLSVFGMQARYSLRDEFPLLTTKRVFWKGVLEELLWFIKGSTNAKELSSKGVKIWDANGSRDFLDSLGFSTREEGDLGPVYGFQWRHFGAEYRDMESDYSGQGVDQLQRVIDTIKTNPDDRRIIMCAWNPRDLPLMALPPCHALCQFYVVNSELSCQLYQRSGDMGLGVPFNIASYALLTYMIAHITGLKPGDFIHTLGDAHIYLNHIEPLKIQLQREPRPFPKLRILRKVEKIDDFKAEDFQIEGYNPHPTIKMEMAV
Sequence of Candida TS ("CTS") (P12461 whole entry): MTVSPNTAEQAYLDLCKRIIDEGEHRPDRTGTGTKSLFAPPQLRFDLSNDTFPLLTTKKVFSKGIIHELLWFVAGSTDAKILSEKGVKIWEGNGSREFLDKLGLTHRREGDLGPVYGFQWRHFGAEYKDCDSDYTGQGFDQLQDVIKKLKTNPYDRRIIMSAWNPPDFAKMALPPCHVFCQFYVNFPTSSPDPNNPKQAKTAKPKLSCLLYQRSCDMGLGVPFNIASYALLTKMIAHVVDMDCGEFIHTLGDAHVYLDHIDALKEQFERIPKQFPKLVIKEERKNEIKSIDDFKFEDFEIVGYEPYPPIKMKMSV

| SMILES | Ki [1] [µM] | Ki [2] [µM] | Ki [3] [µM] | IC50 [4] [µM] | IC50 [5] [µM] | IC50 [6] [µM] | Ki ([1]; read-out: Ki ETS, 25° C., against 5,10-methylene-tetrahydrofolate, 25 microM dUMP) [µM] | Ki ([3]; read-out: Ki CTS, 25° C., against 5,10-methylene-tetrahydrofolate, 25 microM dUMP) [µM] |
| --- | --- | --- | --- | --- | --- | --- | --- | --- |
| CCN(Cc1ccc(S(=O)(=O)N2CCNCC2)cc1)c1ccc2c3c(cccc13)C(=S)N2 [Compound 6, N-^6 -Ethyl-N^6 [(4-N,N-piperazinyl)sulfamoyl]benzyl-6-aminobenz[cd]indol-2(1H)-thione] | 50 ± 9 | 3.4 ± 0.4 | 23 ± 15 | 2.1 | 3.5 | > 5 |  |  |
| CCN(Cc1ccc(S(=O)(=O)c2ccccc2)cc1)c1ccc2c3c(cccc13)C(=O)N2 [Compound 8, N-[4-(phenylsulfonyl)benzyl]-N-ethyl-6-aminobenz[cd]indol-2(1H)-one] | > 1 | 1.2 ± 0.4 | > 1 | 3.05 | > 3.33 | > 3.33 |  |  |
| O=C1Nc2ccc(N(CCO)Cc3ccc(S(=O)(=O)N4CCNCC4)cc3)c3cccc1c23 [Compound 16, N-[4-(N,N-Piperazinylsulfamoyl)benzyl]-N-hydroxyethyl-6-aminobenz[cd]indol-2(1H)-one] | 14 ± 7 | 0.87 ± 0.19 | 11 ± 7 | 50 | 31 | > 50 |  |  |
| CCCN(Cc1ccc(S(=O)(=O)N2CCNCC2)cc1)c1ccc2c3c(cccc13)C(=O)N2 [Compound 19, N-[4-(N,N-Piperazinylsulfamoyl)benzyl]-N-propyl-6-aminobenz[cd]indol-2(1H)-one] | > 20 | 12 ± 4 | > 10 | 2.9 | 3.1 | 5.4 |  |  |
| CC(C)N(Cc1ccc(S(=O)(=O)N2CCNCC2)cc1)c1ccc2c3c(cccc13)C(=O)N2 [Compound 22, N-[4-(N,N-piperazinylsulfamoyl)benzyl]-N-isopropyl-6-aminobenz[cd]indol-2(1H)-one] | 23 ± 7 | 4.9 ± 0.7 | 43 ± 9 | 3.9 | 6.8 | 5.9 |  |  |
| CSCN(Cc1ccc(S(=O)(=O)c2ccccc2)cc1)c1ccc2c3c(cccc13)C(=O)N2 [Compound 24, N-[4-(Phenylsulfonyl)benzyl]-N-methylthiomethyl-6-aminobenz[cd]indol-2(1H)-one] | > 1 | 3.9 ± 1.7 | > 1 | 2.1 | 2.8 | > 10 |  |  |
| CN(Cc1ccc(S(=O)(=O)c2ccccc2)cc1)c1ccc2c3c(cccc13)C(=O)N2 [Compound 29] |  |  |  |  |  | > 5 |  |  |
| CN(Cc1ccc(CO)c2ccccc12)c1ccc2c3c(cccc13)C(=O)N2 [Compound 31, N-[4-Hydroxymethyl-1-naphthobenzyl]-N-methyl-6-aminobenz[cd]indol-2(1H)-one] |  | 10 ± 1 |  | 0.8 | 3 | 4 | > 2 | > 2 |
| CCN(Cc1ccc(S(=O)(=O)c2ccccc2)cc1)c1ccc2c3c(cccc13)C(N)=N2 [Compound 34] | 10 ± 6 | 0.075 ± 0.037 | 0.38 ± 0.11 | 0.7 | 1.25 | 3 |  |  |
| O=C1Nc2ccc(N(CCCO)Cc3ccc(S(=O)(=O)N4CCNCC4)cc3)c3cccc1c23 [Compound 40, N-[4-(N,N-Piperazinylsulfamoyl)benzyl]-N-hydroxypropyl-6-aminobenz[cd]indol-2-(1H)-one] | > 10 | 11 ± 5 | > 10 | 21.5 | 15 | 30 |  |  |
| CCN(Cc1ccc(S(=O)(=O)c2ccccc2)cc1)c1ccc2c3c(cccc13)CN2 [Compound 41, N-[4-(phenylsulfonyl)benzyl]-N-ethyl-6-amino-dihydrobenz[cd]indole] | > 5 | 12 ± 3 | > 10 |  |  |  |  |  |
| CN(Cc1ccc2cc(CO)ccc2c1)c1ccc2c3c(cccc13)C(=O)N2 [Compound 47, N-(6-Hydroxymethyl-2-naphthobenzyl)-N-methyl-6-aminobenz[cd]indol-2(1H)-one] | > 10 | 20 ± 10 | > 10 | 1.7 | > 4 | > 4 |  |  |

— patent US5574039A, “Antiproliferative compounds having nitrogen-containing tricyclic ring systems and phenyl substituents” (Agouron Pharmaceuticals, Inc., priority 1994, dated 1996)
